Measured values taken from the supplement of paper PMC10307832.

Legend:
Experiment in all cases: relative viability (nuclei count vs DMSO), 5 days (fraction); higher = more cells survive
RAF265 + Bortezomib = compound: Cn1c(Nc2ccc(C(F)(F)F)cc2)nc2cc(Oc3ccnc(-c4ncc(C(F)(F)F)[nH]4)c3)ccc21 [RAF265] + CC(C)C[C@H](NC(=O)[C@H](Cc1ccccc1)NC(=O)c1cnccn1)B(O)O [Bortezomib] (partner 0.002 µM)
Method in brief: (§1)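 Dosing by pin tool came one day after lung cancer cell lines were seeded in 1536-well plates, using either one drug or a fixed anchor-drug dose plus five library-drug doses (not always all listed) in √10 steps. After 5 days, nuclei were counted on 4× images. Relative viability is treated-well nuclei count divided by vehicle-well nuclei count, and values are medians of duplicate plates.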

Doramapimod + Vorinostat = compound: Cc1ccc(-n2nc(C(C)(C)C)cc2NC(=O)Nc2ccc(OCCN3CCOCC3)c3ccccc23)cc1 [Doramapimod] + O=C(CCCCCCC(=O)Nc1ccccc1)NO [Vorinostat] (partner 1 µM)
Method in brief: as §1

IPA-3 + Luminespib = compound: C1=CC=C2C(=C1)C=CC(=C2SSC3=C(C=CC4=CC=CC=C43)O)O [IPA-3] + CCNC(=O)c1noc(-c2cc(C(C)C)c(O)cc2O)c1-c1ccc(CN2CCOCC2)cc1 [Luminespib] (partner 0.01 µM)
Method in brief: as §1

Doramapimod + Decitabine = compound: Cc1ccc(-n2nc(C(C)(C)C)cc2NC(=O)Nc2ccc(OCCN3CCOCC3)c3ccccc23)cc1 [Doramapimod] + Nc1ncn([C@H]2C[C@H](O)[C@@H](CO)O2)c(=O)n1 [Decitabine] (partner 2 µM)
Method in brief: as §1

Cell Line | relative viability (RAF265 + Bortezomib; first compound 0.01 µM) | relative viability (RAF265 + Bortezomib; first compound 0.03162 µM) | relative viability (RAF265 + Bortezomib; first compound 0.1 µM) | relative viability (RAF265 + Bortezomib; first compound 0.3162 µM) | relative viability (RAF265 + Bortezomib; first compound 1 µM) | relative viability (Doramapimod + Vorinostat; first compound 0.02 µM) | relative viability (Doramapimod + Vorinostat; first compound 0.06325 µM) | relative viability (Doramapimod + Vorinostat; first compound 0.2 µM) | relative viability (Doramapimod + Vorinostat; first compound 0.6325 µM) | relative viability (Doramapimod + Vorinostat; first compound 2 µM) | relative viability (IPA-3 + Luminespib; first compound 0.2 µM) | relative viability (IPA-3 + Luminespib; first compound 0.6325 µM) | relative viability (IPA-3 + Luminespib; first compound 2 µM) | relative viability (IPA-3 + Luminespib; first compound 6.325 µM) | relative viability (IPA-3 + Luminespib; first compound 20 µM) | relative viability (Doramapimod + Decitabine; first compound 0.02 µM) | relative viability (Doramapimod + Decitabine; first compound 0.06325 µM) | relative viability (Doramapimod + Decitabine; first compound 0.2 µM) | relative viability (Doramapimod + Decitabine; first compound 0.6325 µM) | relative viability (Doramapimod + Decitabine; first compound 2 µM)
EBC-1 | 0.48 | 0.464 | 0.521 | 0.482 | 0.489 | – | – | – | – | – | – | – | – | – | – | – | – | – | – | –
EKVX | 0.99 | 0.995 | 1.04 | 0.513 | 0.763 | 0.819 | 0.749 | 0.76 | 0.771 | 0.725 | 0.826 | 0.781 | 0.867 | 0.938 | 1.01 | 0.404 | 0.313 | 0.289 | 0.31 | 0.239
EMC-BAC-2 | 1.07 | 1 | 1.08 | 1.05 | 0.351 | 0.49 | 0.867 | 0.78 | 0.256 | 0.433 | 1.13 | 1.04 | 1.2 | 1.2 | 1.21 | 1 | 0.905 | 0.99 | 0.955 | 0.858
EPLC-272H | 0.973 | 0.956 | 0.818 | 0.808 | 0.392 | 0.494 | 0.529 | 0.266 | 0.528 | 0.41 | 0.469 | 0.473 | 0.352 | 0.416 | 0.553 | 0.377 | 0.389 | 0.361 | – | 0.394
H3255 | 0.901 | 0.776 | 1.06 | – | 0.696 | 0.864 | 0.884 | 0.818 | – | 0.84 | 1.03 | 0.757 | 0.782 | 0.871 | 0.889 | 0.688 | 0.581 | 0.767 | – | 0.569
HARA | 1.12 | 1.1 | 1.1 | 0.809 | 0.801 | 0.532 | 0.496 | 0.547 | 0.506 | 0.486 | 0.991 | 0.767 | 0.0423 | 0.889 | 1.08 | 0.52 | 0.463 | 0.49 | 0.574 | 0.42
HCC-15 | 0.95 | 0.96 | 0.985 | 0.941 | 0.792 | 0.859 | 0.901 | 0.834 | 0.971 | 0.807 | 0.625 | 0.209 | 0.253 | 0.514 | 0.417 | 0.64 | 0.621 | 0.63 | 0.645 | 0.681
HCC-44 | 0.862 | 0.818 | 0.9 | 0.957 | 0.873 | 1.17 | 1.18 | 1.14 | 1.14 | 1.2 | 1.12 | 0.995 | 1.21 | 0.947 | 1.25 | 0.958 | 0.984 | 1.03 | 0.945 | 0.978
HCC-78 | 0.535 | 0.506 | 0.52 | 0.956 | 0.423 | 0.456 | 0.369 | 0.492 | 0.434 | 0.412 | – | – | – | – | – | 0.753 | 0.794 | 0.635 | 0.609 | 0.624
